These are literature values, as cited in patent publication US20050197342A1, “Substituted nitrogen-containing six-membered amino-heterocycles as vanilloid-1 receptor antagonists for treating pain” (priority 2003, published 2005).

For the series, the target named is VR1 (Rattus norvegicus, UniProt O35433). To be noted: Wahl et al., Mol. Pharmacol., 59:9, 2001.

SMILES strings stand for the structures.

Sequence of VR1 (O35433 whole entry): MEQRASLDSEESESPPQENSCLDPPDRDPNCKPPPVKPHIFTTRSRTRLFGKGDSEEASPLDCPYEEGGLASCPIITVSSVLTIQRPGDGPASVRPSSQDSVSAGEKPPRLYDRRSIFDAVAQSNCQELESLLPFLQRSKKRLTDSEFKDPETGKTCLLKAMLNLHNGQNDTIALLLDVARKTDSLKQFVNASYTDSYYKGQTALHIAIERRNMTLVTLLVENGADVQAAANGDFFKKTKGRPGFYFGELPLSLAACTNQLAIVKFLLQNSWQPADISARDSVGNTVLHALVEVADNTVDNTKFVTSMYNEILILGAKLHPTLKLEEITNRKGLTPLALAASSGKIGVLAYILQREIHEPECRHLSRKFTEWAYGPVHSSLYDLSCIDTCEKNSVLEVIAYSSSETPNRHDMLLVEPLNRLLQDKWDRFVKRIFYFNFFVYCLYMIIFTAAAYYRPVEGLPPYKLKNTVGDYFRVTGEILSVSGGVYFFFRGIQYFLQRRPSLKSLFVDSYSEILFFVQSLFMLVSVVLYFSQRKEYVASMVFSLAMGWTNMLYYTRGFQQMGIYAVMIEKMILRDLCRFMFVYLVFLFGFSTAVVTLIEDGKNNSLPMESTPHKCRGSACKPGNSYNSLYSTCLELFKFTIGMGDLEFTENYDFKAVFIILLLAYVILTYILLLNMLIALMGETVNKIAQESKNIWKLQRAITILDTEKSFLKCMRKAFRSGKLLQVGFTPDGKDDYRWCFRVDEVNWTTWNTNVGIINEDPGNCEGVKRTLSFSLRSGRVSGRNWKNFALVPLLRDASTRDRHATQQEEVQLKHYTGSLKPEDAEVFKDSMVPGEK

On to `C=C(C)[C@]12C[C@@H](C)[C@@]34O[C@](Cc5ccccc5)(O[C@@H]1[C@@H]3C=C(COC(=O)Cc1cc(I)c(O)c(OC)c1)C[C@]1(O)C(=O)C(C)=C[C@@H]41)O2` [Iodo-resiniferatoxin], for which the “antagonist of VR1” value is listed as “nanomolar antagonist”.
